Data: patent US20230276803A1, “A PESTICIDALLY ACTIVE MIXTURE COMPRISING THIETANYLOXY COMPOUND, OXIDES OR SALTS THEREOF” (PI INDUSTRIES LTD., priority 2020, published 2023)

Legend:
Format in all cases: in vivo
[1] = system: Parastagonospora nodorum/Septoria nodorum/Stagnospora nodorum; test: Preventive glasshouse test against Septoria nodorum in wheat (Example J); conditions: 500 ppm, preventive spray
Source text: (§1) In which E represents the expected percentage of inhibition of the pests for the combination of two insecticides or one insecticide and one fungicide at defined doses (for example equal to x and y respectively), x is the percentage of inhibition observed for the pest/disease by the compound (1) at a given dose (equal to x), y is the percentage of inhibition observed for the pest/disease by the compound (2) or (3) at a defined dose (equal to y). When the percentage of inhibition observed for the combination is greater than E, there is a synergistic effect.
The single compounds or respective compound combinations were dissolved in 2% dimethyl sulfoxide/acetone and then mixed with water containing emulsifier to a calibrated spray volume of 50 mL. The test solutions were poured into spray bottles for further applications.
[…] One day after treatment, the plants were inoculated with a spore suspension containing 2.8×10^6 Stagnospora nodorum inoculum.
The inoculated plants were then kept in a greenhouse chamber at 22-25° C. temperature and 90-100% relative humidity for disease expression.
A visual assessment of the performance of the single compounds or compound combinations was carried out by rating the disease severity (0-100% scale) on treated plants 3, 7, 10 and 15 days after application. Efficacy (% control) of the single compounds and mixtures was calculated by comparing the disease rating in the treatment with the one of the untreated control. The compounds were also assessed for their plant compatibility by recording symptoms like necrosis, chlorosis and stunting. The results have been described for the compound of formula (I-1) in Table J.

Phakopsora pachyrhizi = test: Preventive glasshouse test against Phakopsora pachyrhizi in soybean (Example H); conditions: preventive spray
Source text: as §1
The single compounds or the respective compound combinations were dissolved in 2% dimethyl sulfoxide/acetone and then mixed with water containing an emulsifier to a calibrated spray volume of 50 ml. The test solutions were poured into spray bottles for further applications.
To test the preventive activity of compounds, healthy young Soybean plants, raised in the greenhouse, were sprayed with the active compound preparation at the stated application rates inside the spray cabinets using hollow cone nozzles. One day after treatment, the plants were inoculated with a suspension containing 2×10^5 Phakopsora pachyrhizi conidia. The inoculated plants were then kept in a greenhouse chamber at a temperature of 22-24° C. and 80-90% relative humidity for disease expression.
A visual assessment of the performance of the single compounds and respective compound combinations was carried out by rating the disease severity (0-100% scale) on treated plants 3, 7, 10 and 15 days after application. Efficacy (% control) of the compounds was calculated by comparing the disease rating in the treatment with the one of the untreated control. The compounds were also assessed for their plant compatibility by recording symptoms like necrosis, chlorosis and stunting. The results have been described for the compound of formula (I-1) in Table H.

Plutella xylostella = test: Leaf dip method (cabbage leaves), Bacillus thuringiensis mixture against Plutella xylostella (Example F); conditions: 0.1 ppm; 72 h
Source text: as §1
(§2) The leaf dip method was used, wherein the required quantity of the compounds were weighed and dissolved in a test solution prepared in tubes. The tubes were put on a vortex at 2000 rpm for 90 min for proper mixing and then, for the single compounds, diluted with a 0.01% Triton-X solution, for the combinations, diluted with a 0.01% Triton-X solution containing formulated Bt, to get the desired test concentration. Cabbage leaves were dipped in the solution for 10 seconds, shade dried for 20 min and then transferred to single cells of bioassay trays. […] Observations on dead, moribund and live larvae were recorded 72 h after the release. Percent mortality was calculated by combining dead and moribund larvae and comparing the results to the one of the untreated control. […]

Pyricularia oryzae = conditions: 500 ppm; preventive spray, rice
Spodoptera litura [2] = test: Diet incorporation method against Spodoptera litura (Example B); conditions: 96 h
Source text: as §1
The diet incorporation method was used, in which semi-synthetic diet was incorporated into the test solution consisting either of the single compound or respective compound combinations, when the temperature was approximately 50° C. in the bioassay containers, then stirred thoroughly for proper mixing and allowed to cool for 30 min. The solidified diet was cut into equal pieces, and then each piece was transferred into one cell of the bio-assay trays. A single starved third instar larva was released into each of these cells of the bio-assay trays and the tray was covered with a lid. The bio-assay trays were kept under laboratory conditions at a temperature of 25° C. and relative humidity of 70%. Observations on dead, moribund and live larvae were recorded 96 h after the release. Percent mortality was calculated by combining dead and moribund larvae and comparing the result with the one of the untreated control. The results are shown for the compound of formula (I-1) in Table B.

Helicoverpa armigera = test: Diet incorporation method against Helicoverpa armigera (Example A); conditions: Helicoverpa armigera, 96 h, read-out: Observed Efficacy (%)
Source text: as §1
The diet incorporation method was used, in which semi-synthetic diet was incorporated into the test solutions consisting either of the single compounds or respective compound combinations, when the temperature was approximately 50° C. in the bio-assay containers, then stirred thoroughly for proper mixing and allowed to cool for 30 min. The solidified diet was cut into equal pieces, and then each piece was transferred into one cell of a bio-assay tray. A single starved third instar larva was released into each of these cells of the bio-assay trays and the tray was covered with a lid. The bio-assay trays were kept under laboratory conditions at a temperature of 25° C. and relative humidity of 70%. Observations on dead, moribund and live larvae were recorded 96 h after the release of the larvae. Percent mortality was calculated by combining dead and moribund larvae and comparing the result to the one of the untreated control. The results are shown for the compound of formula (I-1) in Table A.

Spodoptera litura [3] = test: Leaf dip method (tomato leaves), Bacillus thuringiensis mixture against Spodoptera litura (Example E); conditions: 0.1 ppm; 72 h
Source text: as §1
as §2, with “test concentration. Tomato leaves were” for “test concentration. Cabbage leaves were”, “cells of the bioassay trays.” for “cells of bioassay trays.”, “were recorded at 72 h” for “were recorded 72 h”

SMILES: Cc1cc(Cl)cc(C(=O)NC(C)(C)C)c1NC(=O)c1cc(OC2CS(=O)(=O)C2)nn1-c1ncccc1Cl [Compound (I-1), N-(2-(tert-butylcarbamoyl)-4-chloro-6-methylphenyl)-1-(3-chloropyridin-2-yl)-3-((1,1-dioxidothietan-3-yl)oxy)-1H-pyrazole-5-carboxamide]
- Observed Efficacy (%) [1]: 37%
- Observed Efficacy (%) (Phakopsora pachyrhizi; 100 ppm): 44%
- Observed Efficacy (%) (Phakopsora pachyrhizi; 500 ppm): 47%
- Observed Efficacy (%) (Plutella xylostella): 0%
- Observed Efficacy (%) (Pyricularia oryzae): 38%
- pest or weed control at 0.32 ppm (Spodoptera litura [2]; read-out: Observed Efficacy (%), 0.32 ppm): 37.5%
- pest or weed control at 1 ppm (Spodoptera litura [2]; read-out: Observed Efficacy (%), 1 ppm): 25%
- pest or weed control at 0.1 ppm (Helicoverpa armigera; 0.1 ppm): 12.5%
- pest or weed control at 0.41 ppm (Helicoverpa armigera; 0.41 ppm): 50%
- pest or weed control at 1 ppm (Helicoverpa armigera; 1 ppm): 25%
- Observed Efficacy (%) (Spodoptera litura [3]): 0%
